Test results reported in patent US20110105538A1, “DRUG RESPONSE MARKERS” (GUY'S & ST THOMAS'S NHS FOUNDATION TRUST, priority 2008, published 2011).
Where two headings read alike, the source gives them in different places.

Assays:
[1] = test system: patients with Inflammatory Bowel Disease; conditions: for Allele frequencies: Deletion allele / Allele frequencies: Insertion Allele: number of alleles (%); for Genotype: Insertion no / Genotype: Insertion yes / Genotype frequencies: Insertion no / Genotype frequencies: Insertion yes: number of patients
[2] = test system: patients with IBD (Inflammatory Bowel Disease); experiment: Prospective cohort starting 2 mg/kg AZA for IBD (Example 2): response versus AOX3404A>G, TPMT activity and HLA-G markers
[3] = test system: patients with Inflammatory Bowel Disease; conditions: for Genotype frequencies: Insertion no / Genotype frequencies: Insertion yes: number of patients (%); for Allelic frequencies: Deletion allele / Allelic frequencies: Insertion Allele: number of alleles (%)
[4] = Crohn's Disease Patients, Outcome Failure
[5] = Crohn's Disease Patients, Outcome Response
[6] = Ulcerative Colitis Patients, Outcome Failure
[7] = Ulcerative Colitis Patients, Outcome Response
[8] = of cohort of 182 patients starting 2 mg/kg
[9] = number of patients with side effect

Cn1cnc([N+](=O)[O-])c1Sc1ncnc2nc[nH]c12 [azathioprine]
Allele frequencies: Deletion allele ([1]; All Patients, Outcome Failure): 50 (64%)
Allele frequencies: Insertion Allele ([1]; All Patients, Outcome Failure): 30 (36%)
Allele frequencies: Deletion allele ([1]; All Patients, Outcome Response): 39 (34%)
Allele frequencies: Insertion Allele ([1]; All Patients, Outcome Response): 75 (65%)
Genotype: Insertion no ([1]; CD, Fail): 2
Genotype: Insertion yes ([1]; CD, Fail): 17
Genotype: Insertion no ([1]; CD, Response): 15
Genotype: Insertion yes ([1]; CD, Response): 14
Allele frequencies: Deletion allele [1, 4]: 14 (37%)
Allele frequencies: Insertion Allele [1, 4]: 24 (63%)
Allele frequencies: Deletion allele [1, 5]: 45 (69%)
Allele frequencies: Insertion Allele [1, 5]: 18 (31%)
Genotype: Insertion no ([1]; UC, Fail): 3
Genotype: Insertion yes ([1]; UC, Fail): 18
Genotype: Insertion no ([1]; UC, Response): 10
Genotype: Insertion yes ([1]; UC, Response): 18
Allele frequencies: Deletion allele [1, 6]: 16 (38%)
Allele frequencies: Insertion Allele [1, 6]: 26 (62%)
Allele frequencies: Deletion allele [1, 7]: 45 (62%)
Allele frequencies: Insertion Allele [1, 7]: 21 (37%)
Genotype frequencies: Insertion no ([1]; all patients, Outcome Fail): 21
Genotype frequencies: Insertion yes ([1]; all patients, Outcome Fail): 30
Genotype frequencies: Insertion no ([1]; all patients, Outcome Response): 50
Genotype frequencies: Insertion yes ([1]; all patients, Outcome Response): 32
Fisher's exact test OR ([1]; allele frequencies, All Patients): OR = 3.2
Fisher's exact test OR ([1]; allele frequencies, Crohn's Disease Patients): OR = 4.2
Fisher's exact test OR ([1]; allele frequencies, Ulcerative Colitis Patients): OR = 3.4
Fisher's exact test OR ([1]; genotype frequencies, all patients): OR = 2.2,
Fisher's exact test OR ([1]; genotype, CD): OR = 9,
Fisher's exact test OR ([1]; genotype, UC): OR = 3,
patients identified as responders to therapy ([1]; of 100 patients completing minimum three months, steroid withdrawal and Harvey Bradshaw index less than four): 50 patients
withdrew due to intolerable side-effects ([1]; of the 140 patients recruited): 40
non-responders [2, 8]: 44
responders [2, 8]: 66
those discontinuing treatment due to side effects [2, 8]: 72
chance of responding ([2]; those with all adverse predictors): 14%
chance of responding ([2]; those with no adverse predictors): 95%

CN(Cc1cnc2nc(N)nc(N)c2n1)c1ccc(C(=O)N[C@@H](CCC(=O)O)C(=O)O)cc1 [methotrexate]
association between side effects and folate supplementation ([3]; 94 patients on folate, 39 never on folate): No association
Genotype frequencies: Insertion no ([3]; Outcome Fail (91 pts.)): 21 (23%%)
Genotype frequencies: Insertion yes ([3]; Outcome Fail (91 pts.)): 70 (77%)
Allelic frequencies: Deletion allele ([3]; Outcome Failure): 86 (47%)
Allelic frequencies: Insertion Allele ([3]; Outcome Failure): 96 (52%)
Genotype frequencies: Insertion no ([3]; Outcome Response (91 pts.)): 40 (44%)
Genotype frequencies: Insertion yes ([3]; Outcome Response (91 pts.)): 51 (56%)
Allelic frequencies: Deletion allele ([3]; Outcome Response): 113 (62%)
Allelic frequencies: Insertion Allele ([3]; Outcome Response): 69 (37%)
Fisher's exact test OR ([3]; allelic frequencies, response vs failure): OR = 1.8
Fisher's exact test OR ([3]; genotype frequencies, response vs fail): OR = 2.6,
patients developed side effects ([3]; methotrexate group): 45 patients
patients withdrawn from therapy as a direct consequence of their side-effect ([3]; methotrexate group): 21 patients
abdominal pain [3, 9]: one
alopecia [3, 9]: one
haematological abnormalities including neutropenia [3, 9]: four
minor infections [3, 9]: four
mucositis [3, 9]: two
muscle and joint pains [3, 9]: three
nausea [3, 9]: 16
skin rash [3, 9]: three
transient LFT abnormalities [3, 9]: 10
patients responded to treatment (percent) ([3]; of 187 patients completing at least three months of therapy): 51%
patients responded to treatment ([3]; of 187 patients completing at least three months of therapy, response = steroid withdrawal or documented efficacy): 97 patients
response to treatment between administration regimes ([3]; oral vs subcutaneous vs intramuscular induction progressing to oral): no difference in the response to treatment
